In this assay the target is T1, human ANO6 (variant 5) (Homo sapiens, UniProt Q4KMQ2).
T1 construct: expressed in transfected cells; host or cells: Fischer rat thyroid (FRT) cells
T1 sequence (Q4KMQ2 1-931 isoform Q4KMQ2-2): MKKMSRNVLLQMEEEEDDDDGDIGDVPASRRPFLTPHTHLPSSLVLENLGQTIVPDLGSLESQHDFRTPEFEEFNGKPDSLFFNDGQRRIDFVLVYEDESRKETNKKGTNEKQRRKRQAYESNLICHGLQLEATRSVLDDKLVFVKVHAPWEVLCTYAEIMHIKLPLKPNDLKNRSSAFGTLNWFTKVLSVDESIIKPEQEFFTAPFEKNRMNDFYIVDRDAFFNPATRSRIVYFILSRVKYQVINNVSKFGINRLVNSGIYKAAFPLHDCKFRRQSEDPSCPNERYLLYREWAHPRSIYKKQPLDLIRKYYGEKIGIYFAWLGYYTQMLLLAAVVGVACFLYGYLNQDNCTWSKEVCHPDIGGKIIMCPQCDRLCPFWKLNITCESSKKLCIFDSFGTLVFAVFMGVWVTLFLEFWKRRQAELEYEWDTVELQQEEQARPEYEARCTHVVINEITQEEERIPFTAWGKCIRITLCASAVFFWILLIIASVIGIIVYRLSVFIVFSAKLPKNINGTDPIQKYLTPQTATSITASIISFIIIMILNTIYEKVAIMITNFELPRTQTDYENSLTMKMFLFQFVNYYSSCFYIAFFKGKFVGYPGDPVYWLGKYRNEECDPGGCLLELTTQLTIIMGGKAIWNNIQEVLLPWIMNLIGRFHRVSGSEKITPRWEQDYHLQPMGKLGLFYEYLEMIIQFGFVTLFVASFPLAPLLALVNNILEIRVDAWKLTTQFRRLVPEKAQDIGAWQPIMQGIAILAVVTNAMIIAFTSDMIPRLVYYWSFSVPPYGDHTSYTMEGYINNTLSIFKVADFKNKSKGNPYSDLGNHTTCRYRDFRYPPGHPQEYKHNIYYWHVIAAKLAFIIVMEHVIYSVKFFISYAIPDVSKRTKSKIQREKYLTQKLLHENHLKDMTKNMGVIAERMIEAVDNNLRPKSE
The assay can be described thus: Lact C2 assay (measuring phosphatidylserine externalization scramblase function). Type of assay: cell-based. Conditions: FRT; for inhibition at 1 µM: read-out: % Inhibition 1 µM; for inhibition at 0.05 µM: read-out: % Inhibition 50 nM. The procedure, abridged: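 Cells were pretreated 10 min with compound (50 nM, 100 nM, 1 µM; 1% DMSO), then given 10 µM ionomycin for 10 min. Surface phosphatidylserine was stained with 500 nM Lact-C2-GFP (10 min, 37 °C), fixed and imaged. Inhibition was scaled between untreated (100%) and ionomycin-alone (0%) wells.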

The mark [1] stands for this setting: compound 1 µM, FRT cells expressing human ANO6 (variant 5), ionomycin 10 µM, Lact-C2-GFP fluorescence, average of three tests.
Where [2] appears, read: compound 50 nM, FRT cells expressing human ANO6 (variant 5), ionomycin 10 µM, Lact-C2-GFP fluorescence, average of three tests.

Like-named read-outs stand apart in the source and are kept apart here. Where only a bound is given, the exact number is not on record here.

Inhibition data for 28 compounds are collected here from patent EP4559908A1, “HETEROARYL DERIVATIVE COMPOUND AND USE THEREOF” (S2CBio Inc., priority 2022, dated 2024).

What is called inhibition is the change of the read-out against control, counted positive when it falls. Consider `FC(F)(F)c1ccc2nc(-c3cc(Nc4ccc(-c5cccnn5)cc4)ccn3)[nH]c2c1` [Example 263, N-(4-(pyridazin-3-yl)phenyl)-2-(6-(trifluoromethyl)-1H-benzo[d]imidazol-2-yl)pyridin-4-amine], for which the inhibition at 1 µM under setting [1] was 30 to 60%.

On to `Fc1ccc(-c2ccc(Nc3cccc(-c4nc5ccc(C(F)(F)F)cc5[nH]4)c3)cc2)nn1` [Example 264, N-(4-(6-fluoropyridazin-3-yl)phenyl)-3-(6-(trifluoromethyl)-1H-benzo[d]imidazol-2-yl) aniline], for which the inhibition at 0.05 µM under setting [2] is above 60%.

As to `Fc1ccc(-c2ccc(Nc3cccc(-c4nc5ccccc5[nH]4)c3)cc2)nn1` [Example 265, 3-(1H-benzo[d]imidazol-2-yl)-N-(4-(6-fluoropyridazin-3-yl)phenyl)aniline], the inhibition at 0.05 µM under setting [2] was above 60%.

Turning to `Fc1cc(-c2cccnn2)ccc1Nc1cccc(-c2nc3ccccc3[nH]2)c1` [Example 269, N-(3-(1H-benzo[d]imidazol-2-yl)phenyl)-2-fluoro-4-(pyridazin-3-yl)aniline], the inhibition at 0.05 µM under setting [2] was in the range of 30 to 60%. The inhibition at 1 µM under setting [1] was above 60%.

In the case of `Fc1cc(Nc2cccc(-c3nc4ccccc4[nH]3)c2)ccc1-c1cccnn1` [Example 270, N-(3-(1H-benzo[d]imidazol-2-yl)phenyl)-3-fluoro-4-(pyridazin-3-yl)aniline], under setting [2], the inhibition at 0.05 µM is above 60%.

As for `c1ccc(-c2cnc(Nc3cccc(-c4nc5ccccc5[nH]4)c3)nn2)cc1` [Example 271, N-(3-(1H-benzo[d]imidazol-2-yl)phenyl)-6-phenyl-1,2,4-triazin-3-amine], the inhibition at 1 µM under setting [1] lay within 30 to 60%.

For `FC(F)(F)c1ccccc1-c1ccc(Nc2cccc(-c3nc4ccccc4[nH]3)c2)cc1` [Example 272, N-(3-(1H-benzo[d]imidazol-2-yl)phenyl)-2'-(trifluoromethyl)-[1,1'-biphenyl]-4-amine], the inhibition at 1 µM under setting [1] is above 60%.

With `COc1ccc(-c2ccc(Nc3cccc(-c4nc5ccccc5[nH]4)c3)cc2)nn1` [Example 275, 3-(1H-benzo[d]imidazol-2-yl)-N-(4-(6-methoxypyridazin-3-yl)phenyl)aniline], under setting [1], the inhibition at 1 µM was above 60%.

Take `c1ccc(-c2cnc(Nc3cccc(-c4nc5ccccc5[nH]4)c3)cn2)nc1` [Example 276, N-(3-(1H-benzo[d]imidazol-2-yl)phenyl)-5-(pyridin-2-yl)pyrazin-2-amine]: the inhibition at 0.05 µM under setting [2] is above 60%.

With `c1cc(Nc2cnc(-c3ccncn3)cn2)cc(-c2nc3ccccc3[nH]2)c1` [Example 277, N-(3-(1H-benzo[d]imidazol-2-yl)phenyl)-5-(pyrimidin-4-yl)pyrazin-2-amine], the inhibition at 0.05 µM under setting [2] was above 60%.

For `COc1ccc(-c2ccc(Nc3cccc(-c4nc5ccc(C(F)(F)F)cc5[nH]4)c3)cc2)nn1` [Example 278, N-(4-(6-methoxypyridazin-3-yl)phenyl)-3-(6-(trifluoromethyl)-1H-benzo[d]imidazol-2-yl)aniline], the inhibition at 0.05 µM under setting [2] was above 60%.

As to `CNc1ccc2nc(-c3cccc(Nc4ccc(-c5cccnn5)cc4)c3)[nH]c2c1` [Example 279, N-methyl-2-(3-((4-(pyridazin-3-yl)phenyl)amino)phenyl)-1H-benzo[d]imidazol-6-amine], the inhibition at 1 µM under setting [1] lay in the range of 30 to 60%.

Take `CN(Cc1ccccc1)c1ccc2nc(-c3cccc(Nc4ccc(-c5cccnn5)cc4)c3)[nH]c2c1` [Example 280, N-benzyl-N-methyl-2-(3-((4-(pyridazin-3-yl)phenyl)amino)phenyl)-1H-benzo[d]imidazol-6-amine]: the inhibition at 0.05 µM was 30 to 60% and the inhibition at 1 µM is above 60%.

On to `Fc1cc2[nH]c(-c3cccc(Nc4ccc(-c5ccccn5)cn4)c3)nc2cn1` [Example 281, N-(3-(6-fluoro-1H-imidazo[4,5-c]pyridin-2-yl)phenyl)-[2,3'-bipyridin]-6'-amine], for which the inhibition at 0.05 µM under setting [2] is above 60%. Besides, the inhibition at 1 µM under setting [1] is above 60%.

For `Clc1cc2[nH]c(-c3cccc(Nc4ccc(-c5ccccn5)cn4)c3)nc2cn1` [Example 282, N-(3-(6-chloro-1H-imidazo[4,5-c]pyridin-2-yl)phenyl)-[2,3'-bipyridin]-6'-amine], the inhibition at 0.05 µM under setting [2] lay in the range of 30 to 60%. Further, the inhibition at 1 µM under setting [1] is above 60%.

`Fc1cc2nc(-c3cccc(Nc4ccc(-c5ccccn5)cn4)c3)[nH]c2cc1F` [Example 283, N-(3-(5,6-difluoro-1H-benzo[d]imidazol-2-yl)phenyl)-[2,3'-bipyridin] -6'-amine]: the inhibition at 0.05 µM under setting [2] is above 60%. Under setting [1], the inhibition at 1 µM was above 60%.

With `FC(F)Oc1ccc2nc(-c3cccc(Nc4ccc(-c5ccccn5)cn4)c3)[nH]c2c1` [Example 284, N-(3-(6-(difluoromethoxy)-1H-benzo[d]imidazol-2-yl)phenyl)-[2,3'-bipyridin]-6'-amine], the inhibition at 0.05 µM under setting [2] was above 60%. Also, the inhibition at 1 µM under setting [1] was above 60%.

Take `FC(F)Oc1ccc2nc(-c3cccc(Nc4ncc(-c5ccccn5)cn4)c3)[nH]c2c1` [Example 285, N-(3-(6-(difluoromethoxy)-1H-benzo[d]imidazol-2-yl)phenyl)-5-(pyridin-2-yl)pyrimidin-2-amine]: the inhibition at 0.05 µM under setting [2] was above 60%. In addition, the inhibition at 1 µM under setting [1] was above 60%.

As to `Fc1cc2[nH]c(-c3cccc(Nc4ncc(-c5ccccn5)cn4)c3)nc2cn1` [Example 286, N-(3-(6-fluoro-1H-imidazo[4,5-c]pyridin-2-yl)phenyl)-5-(pyridin-2-yl)pyrimidin-2-amine], under setting [1], the inhibition at 1 µM was above 60%.

As to `FC(F)Oc1ccc2nc(-c3cccc(Nc4ncc(-c5cccnn5)cn4)c3)[nH]c2c1` [Example 287, N-(3-(6-(difluoromethoxy)-1H-benzo[d]imidazol-2-yl)phenyl)-5-(pyridazin-3-yl)pyrimidin-2-amine], the inhibition at 1 µM under setting [1] was in the range of 30 to 60%.

In the case of `FC(F)(F)c1cccc2nc(-c3cccc(Nc4ncc(-c5cccnn5)cn4)c3)[nH]c12` [Example 289, 5-(pyridazin-3-yl)-N-(3-(7-(trifluoromethyl)-1H-benzo[d]imidazol-2-yl)phenyl)pyrimidin-2-amine], the inhibition at 1 µM under setting [1] lay within 30 to 60%.

Take `Fc1cccc2nc(-c3cccc(Nc4ncc(-c5cccnn5)cn4)c3)[nH]c12` [Example 290, N-(3-(7-fluoro-1H-benzo[d]imidazol-2-yl)phenyl)-5-(pyridazin-3-yl)pyrimidin-2-amine]: under setting [1], the inhibition at 1 µM lay in the range of 30 to 60%.

Turning to `Fc1cc(F)c2[nH]c(-c3cccc(Nc4ncc(-c5cccnn5)cn4)c3)nc2c1` [Example 292, N-(3-(5,7-difluoro-1H-benzo[d]imidazol-2-yl)phenyl)-5-(pyridazin-3-yl)pyrimidin-2-amine], the inhibition at 1 µM under setting [1] is 30 to 60%.

Take `FC(F)(F)c1cc2nc(-c3cccc(Nc4ncc(-c5cccnn5)cn4)c3)[nH]c2cc1Cl` [Example 294, N-(3-(6-chloro-5-(trifluoromethyl)-1H-benzo[d]imidazol-2-yl)phenyl)-5-(pyridazin-3-yl)pyrimidin-2-amine]: under setting [2], the inhibition at 0.05 µM lay within 30 to 60%. In addition, the inhibition at 1 µM under setting [1] is above 60%.

On to `FC(F)(F)Oc1ccc2nc(-c3cccc(Nc4ncc(-c5cccnn5)cn4)c3)[nH]c2c1` [Example 295, 5-(pyridazin-3-yl)-N-(3-(6-(trifluoromethoxy)-1H-benzo[d]imidazol-2-yl)phenyl)pyrimidin-2-amine], for which the inhibition at 0.05 µM under setting [2] lay within 30 to 60%. In addition, under setting [1], the inhibition at 1 µM was above 60%.

For `FC(F)(F)c1ccc2nc(-c3cccc(Nc4ccc(-c5ccncn5)nn4)c3)[nH]c2c1` [Example 296, 6-(pyrimidin-4-yl)-N-(3-(6-(trifluoromethyl)-1H-benzo[d]imidazol-2-yl)phenyl)pyridazin-3-amine], under setting [1], the inhibition at 1 µM lay within 30 to 60%.

For `Fc1cc2nc(-c3cccc(Nc4cnc(-c5ccncn5)cn4)c3)[nH]c2cc1F` [Example 297, N-(3-(5,6-difluoro-1H-benzo[d]imidazol-2-yl)phenyl)-5-(pyrimidin-4-yl)pyrazin-2-amine], the inhibition at 0.05 µM under setting [2] is above 60%. The inhibition at 1 µM under setting [1] was above 60%.

Take `Fc1cc2nc(-c3cccc(Nc4cnc(-c5ccccn5)cn4)c3)[nH]c2cc1F` [Example 298, N-(3-(5,6-difluoro-1H-benzo[d]imidazol-2-yl)phenyl)-5-(pyridin-2-yl)pyrazin-2-amine]: under setting [2], the inhibition at 0.05 µM lay in the range of 30 to 60%. For the same compound, under setting [1], the inhibition at 1 µM was above 60%.
